Measured values reported in patent publication US9180155B2, “Compositions from Nigella sativa” (Bio Nexus, Ltd, priority 2013, dated 2015).

Tests used:
[1] = DPPH free radical scavenging (antioxidant) assay; details: computed on basis of TQ content; inactive samples tested up to 1000 μg/mL
Description: Antioxidant activity was determined utilizing 2,2-diphenyl-1-picrylhydrazyl (DPPH), which is a stable radical. The odd electron in the DPPH free radical gives a strong absorption maximum at 550 nm and is purple in color. The color turns from purple to yellow as the molar absorption of the DPPH radical at 550 nm is reduced when the odd electron of DPPH radical becomes paired with hydrogen from a free radical scavenging antioxidant to form the reduced DPPH-H. The test samples were dissolved in methanol containing 1% dimethyl sulfoxide and added to microtiter wells in 100 μL aliquots to 100 μL of a 100 μM DPPH solution in methanol. Readings were taken at 10, 30 and 60 minutes following the addition of the test material. Percent inhibition of the DPPH radical by the test material was computed relative to the inhibition of the DPPH radical by the vitamin E analog trolox and tabulated as μmol trolox/g test material.

[2] = test system: Caco-2 monolayers; test: LPS/H2O2-mediated loss of TEER in Caco-2 monolayers; assay type: cell-based, human; details: LPS/H2O2 control = 100, 3 h; μg TQ equivalents/mL: Thymoquinone 5.0, NS8 0.11, NS9 0.99, NS10 0.012, NSSpent#2 0.0005; NSSpent#1 5 μg/mL; listed as TQ
Source text: The protocol for growing and differentiation the human Caco-2 colon andenocarcinoma cells was a modification of Protocol 3 as described by Yamashita et al. [[…]., and Furuyama, Y. 2002) New and better protocols for a short-term Caco-2 cell culture system, J Pharm Sci 91, 669-679]. Caco-2 Human Colon Adenocarcinoma cells were obtained from ATCC (Rockville, Md.; catalog #HTB-37) and maintained in a growth media: DMEM (Dulbecco's Modified Eagles Medium 1×) containing L-glutamine, glucose; Cellgro catalog #35-010CV with the following additions: (1) Penicillin (5,000 IU/mL)/Streptomycin (5,000 μg/mL) Cellgro catalog #30-001C1, (2) 10% FBS-Fetal Bovine Serum, Characterized; Hyclone catalog #SH30071.3, and (3) 1% NEAA-Non Essential Amino Acids; Cellgro catalog #25-025-CI; cells were cultured at 37 C in a humidified air-5% CO2 atmosphere in T175 flasks. BIOCOAT^R HTS Caco-2 Assay System kits (Becton Dickinson, N.J.; catalog #354801) consisting of 24-well fibrillar collagen coated inserts and feeder trays were used in all experiments and plated as follows. Media was removed from the T175 flasks and cells were washed with 10 mLs PBS (phosphate buffered saline 1× without Ca^++, without Mg^++; Cellgro #25-053-CI). […]

[3] = test system: adiponectin secretion in 3T3-L1 adipocytes; test: Adiponectin secretion in t10-CLA-stimulated 3T3-L1 adipocytes; assay type: cell-based, murine; details: t10-CLA 50 μM control = 100; μg TQ equivalents/mL: Thymoquinone 5.0, NS8 0.11, NS9 0.99, NS10 0.012, NSSpent#2 0.0005; NSSpent#1 5 μg/mL; listed as TQ
Description: The 3T3-L1 murine fibroblast model as used in Example 4 was used in this experiments. Test materials were added four hours prior to the addition of t10-CLA at a concentration of 50 μM. Following overnight incubation, the supernatant media were sampled for determination of IL-6 and adiponectin. The adiponectin secreted into the medium was quantified using the Mouse Adiponectin Quantikine® Immunoassay kit with no modifications (R&D Systems, Minneapolis, Minn.). […] Test materials and were assayed in duplicate, while solvent controls were replicated eight times. IL-6 and adiponectin secretion were represented relative to the IL-6 and adiponectin secretion of the t10-CLA only controls as the IL-6 and adiponectin index and differences among the means were analyzed by the student's t-test assuming a five percent probability of a type I error (Excel; Microsoft, Redmond, Wash.).

[4] = test system: C2C12 myocytes; test: Lipolysis (glycerol assay) in C2C12 myocytes; assay type: cell-based, murine; details: 5 or 2.5 μg/mL (FIG. 10)
Description: Culture and treatment of 3T3-L1 adipocytes and C2C12 myocytes was as described in Example 5. Concentrations of the forskolin positive control and test materials are listed in FIG. 9 for adipocytes and FIG. 10 for myocytes. Free fatty acid release from 3T3-L1 adipocytes or C2C12 myocytes was quantified by measuring glycerol secretion into the medium. Glycerol was measured spectrophotometrically using the Free Glycerol Determination Kit ([…], Sigma) and an EL 312e Microplate BIO-KINETICS spectrophotometer (BioTek, Winooski, Vt.). Glycerol release from adipocytes and myocytes was expressed, respectively, as the percent increase in free fatty acid secretion (FIG. 9) and relative glycerol content (glycerol index FIG. 10) ±95% confidence intervals of eight observations for one of three representative experiments.

Which “DPPH Reducing Activity” value [1] does the source give for CC1=CC(=O)C(C(C)C)=CC1=O [Thymoquinone, thymoquinone] here?
The value was 45.2 μmol Trolox/g TQ.

And the “Relative Loss of TEER” value [2]?
The value was “no effect”.

And the “Adiponectin Index” value [3]?
The value was “attenuated t10-CLA-stimulated decrease of adiponectin secretion”.

What about the “free fatty acid release in myocytes” value [4] of the same compound?
Its value is “induced free fatty acid release”.
